Measured values from the NIST ThermoML archive (doi:10.1021/je8008254).
Numbers after ± are expanded uncertainties.

Experiments:
[1] = 101 kPa, Liquid
[2] = xn = mol fraction of the nth substance listed; conditions: 101 kPa, Liquid

CO [methanol]
[1]
Conditions	mass density [kg/m3]	viscosity [mPa·s]
298.15 K	786.64 ± 1.4	0.577 ± 0.031
308.15 K	777.15 ± 1.4	0.525 ± 0.029
318.15 K	767.59 ± 1.5	0.481 ± 0.027
328.15 K	757.83 ± 1.5	0.443 ± 0.025

CCCCn1cc[n+](C)c1.N#C[S-] [1-butyl-3-methylimidazolium thiocyanate] + CCO
[2]
Conditions	mass density [kg/m3]	viscosity [mPa·s]
298.15 K, x1 = 0.0473	829.74 ± 1.2	1.48 ± 0.07
298.15 K, x1 = 0.1129	876.41 ± 0.98	2.07 ± 0.1
298.15 K, x1 = 0.1877	916.69 ± 0.81	2.95 ± 0.14
298.15 K, x1 = 0.2943	957.41 ± 0.68	4.7 ± 0.21
298.15 K, x1 = 0.3637	978.05 ± 0.62	6.36 ± 0.27
298.15 K, x1 = 0.5306	1014.59 ± 0.72	11.7 ± 0.5
298.15 K, x1 = 0.696	1039.72 ± 1	19.7 ± 0.8
298.15 K, x1 = 0.8114	1052.9 ± 1.2	27.4 ± 1
298.15 K, x1 = 0.9174	1062.78 ± 1.4	36.2 ± 1.4
298.15 K, x1 = 1	1069.79 ± 1.6	51.7 ± 1.2
308.15 K, x1 = 0.0473	821.61 ± 1.2	1.23 ± 0.06
308.15 K, x1 = 0.1129	868.74 ± 1	1.71 ± 0.08
308.15 K, x1 = 0.1877	909.46 ± 0.85	2.41 ± 0.11
308.15 K, x1 = 0.2943	950.56 ± 0.71	3.77 ± 0.17
308.15 K, x1 = 0.3637	971.37 ± 0.65	4.95 ± 0.22
308.15 K, x1 = 0.5306	1008.22 ± 0.69	8.89 ± 0.36
308.15 K, x1 = 0.696	1033.57 ± 0.98	14.3 ± 0.6
308.15 K, x1 = 0.8114	1046.84 ± 1.2	19.2 ± 0.7
308.15 K, x1 = 0.9174	1056.82 ± 1.4	24.7 ± 1
308.15 K, x1 = 1	1063.89 ± 1.6	34.9 ± 1.3
318.15 K, x1 = 0.0473	813.39 ± 1.3	1.05 ± 0.05
318.15 K, x1 = 0.1129	861.06 ± 1.1	1.44 ± 0.07
318.15 K, x1 = 0.1877	902.2 ± 0.88	2.01 ± 0.09
318.15 K, x1 = 0.2943	943.72 ± 0.74	3.1 ± 0.14
318.15 K, x1 = 0.3637	964.72 ± 0.68	3.94 ± 0.18
318.15 K, x1 = 0.5306	1001.9 ± 0.65	7 ± 0.29
318.15 K, x1 = 0.696	1027.47 ± 0.95	10.9 ± 0.4
318.15 K, x1 = 0.8114	1040.84 ± 1.2	14.2 ± 0.6
318.15 K, x1 = 0.9174	1050.88 ± 1.4	17.8 ± 0.7
318.15 K, x1 = 1	–	24.2 ± 0.9
328.15 K, x1 = 0.0473	805.05 ± 1.3	0.896 ± 0.045
328.15 K, x1 = 0.1129	853.27 ± 1.1	1.23 ± 0.06
328.15 K, x1 = 0.1877	894.91 ± 0.92	1.71 ± 0.08
328.15 K, x1 = 0.2943	936.87 ± 0.77	2.59 ± 0.12
328.15 K, x1 = 0.3637	958.11 ± 0.71	3.24 ± 0.15
328.15 K, x1 = 0.5306	995.61 ± 0.66	5.97 ± 0.26
328.15 K, x1 = 0.696	1021.4 ± 0.91	8.54 ± 0.35
328.15 K, x1 = 0.8114	1034.86 ± 1.1	10.9 ± 0.4
328.15 K, x1 = 0.9174	1044.99 ± 1.3	13.4 ± 0.5
328.15 K, x1 = 1	1052.19 ± 1.5	16.7 ± 0.7
338.15 K, x1 = 0.0473	796.53 ± 1.3	0.78 ± 0.04
338.15 K, x1 = 0.1129	845.44 ± 1.1	1.06 ± 0.05
338.15 K, x1 = 0.1877	887.57 ± 0.95	1.47 ± 0.07
338.15 K, x1 = 0.2943	930.03 ± 0.8	2.2 ± 0.1
338.15 K, x1 = 0.3637	951.47 ± 0.74	2.75 ± 0.13
338.15 K, x1 = 0.5306	989.36 ± 0.69	4.56 ± 0.21
338.15 K, x1 = 0.696	1015.36 ± 0.88	6.84 ± 0.29
338.15 K, x1 = 0.8114	1028.95 ± 1.1	8.64 ± 0.36
338.15 K, x1 = 0.9174	1039.15 ± 1.3	10.5 ± 0.4
338.15 K, x1 = 1	1046.43 ± 1.5	12.73 ± 0.51
348.15 K, x1 = 0.0473	787.85 ± 1.4	–
348.15 K, x1 = 0.1129	837.47 ± 1.2	0.926 ± 0.046
348.15 K, x1 = 0.1877	880.22 ± 0.99	1.28 ± 0.06
348.15 K, x1 = 0.2943	923.18 ± 0.83	1.9 ± 0.09
348.15 K, x1 = 0.3637	944.88 ± 0.77	–
348.15 K, x1 = 0.5306	983.14 ± 0.72	3.8 ± 0.17
348.15 K, x1 = 0.696	1009.4 ± 0.85	5.58 ± 0.25
348.15 K, x1 = 0.8114	1023.05 ± 1.1	7.01 ± 0.3
348.15 K, x1 = 0.9174	1033.34 ± 1.3	8.39 ± 0.35
348.15 K, x1 = 1	1040.7 ± 1.4	9.98 ± 0.41

CCCO [propan-1-ol]
[1]
Conditions	mass density [kg/m3]	viscosity [mPa·s]
298.15 K	799.52 ± 1.3	1.94 ± 0.09
308.15 K	791.41 ± 1.4	1.54 ± 0.07
318.15 K	783.15 ± 1.4	1.24 ± 0.06
328.15 K	774.66 ± 1.4	1.02 ± 0.05
338.15 K	765.91 ± 1.5	0.842 ± 0.043
348.15 K	756.84 ± 1.5	0.71 ± 0.037
